Assay results from ChEMBL document CHEMBL1909046, “DrugMatrix in vitro pharmacology data”.

What was measured:
Cytochrome P450 2C9 = Cytochrome P450 2C9 (Homo sapiens, UniProt P11712); conditions: bti-tn-5b1-4
Cytochrome P450 2C19 = Cytochrome P450 2C19 (Homo sapiens, UniProt P33261); conditions: bti-tn-5b1-4
Cytochrome P450 3A4 = Cytochrome P450 3A4 (Homo sapiens, UniProt P08684); conditions: bti-tn-5b1-4
Cytochrome P450 2D6 = Cytochrome P450 2D6 (Homo sapiens, UniProt P10635); conditions: bti-tn-5b1-4
Cytochrome P450 1A2 = target: T1, Cytochrome P450 1A2 (Homo sapiens, UniProt P05177); conditions: bti-tn-5b1-4
T1 sequence (P05177 whole entry): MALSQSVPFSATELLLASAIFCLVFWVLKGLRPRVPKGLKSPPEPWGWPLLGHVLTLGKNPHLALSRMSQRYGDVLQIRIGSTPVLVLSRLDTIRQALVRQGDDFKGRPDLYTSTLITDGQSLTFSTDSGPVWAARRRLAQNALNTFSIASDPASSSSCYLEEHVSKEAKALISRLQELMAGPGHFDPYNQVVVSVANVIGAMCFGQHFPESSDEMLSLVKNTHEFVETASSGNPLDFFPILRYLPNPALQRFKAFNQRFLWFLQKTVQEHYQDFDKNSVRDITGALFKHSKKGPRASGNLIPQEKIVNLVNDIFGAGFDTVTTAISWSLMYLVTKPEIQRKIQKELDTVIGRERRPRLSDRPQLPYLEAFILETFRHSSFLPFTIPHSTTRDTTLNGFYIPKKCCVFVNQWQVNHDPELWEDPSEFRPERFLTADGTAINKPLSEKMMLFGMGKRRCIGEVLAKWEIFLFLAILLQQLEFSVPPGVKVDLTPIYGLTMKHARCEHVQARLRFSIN

Cytochrome P450 2E1 = Cytochrome P450 2E1 (Homo sapiens, UniProt P05181); conditions: bti-tn-5b1-4
[1] = target: Voltage-gated inwardly rectifying potassium channel KCNH2 (Homo sapiens, UniProt Q12809); conditions: hek293
Cytochrome P450 2A6 = target: T2, Cytochrome P450 2A6 (Homo sapiens, UniProt P11509); conditions: bti-tn-5b1-4
T2 sequence (P11509 whole entry): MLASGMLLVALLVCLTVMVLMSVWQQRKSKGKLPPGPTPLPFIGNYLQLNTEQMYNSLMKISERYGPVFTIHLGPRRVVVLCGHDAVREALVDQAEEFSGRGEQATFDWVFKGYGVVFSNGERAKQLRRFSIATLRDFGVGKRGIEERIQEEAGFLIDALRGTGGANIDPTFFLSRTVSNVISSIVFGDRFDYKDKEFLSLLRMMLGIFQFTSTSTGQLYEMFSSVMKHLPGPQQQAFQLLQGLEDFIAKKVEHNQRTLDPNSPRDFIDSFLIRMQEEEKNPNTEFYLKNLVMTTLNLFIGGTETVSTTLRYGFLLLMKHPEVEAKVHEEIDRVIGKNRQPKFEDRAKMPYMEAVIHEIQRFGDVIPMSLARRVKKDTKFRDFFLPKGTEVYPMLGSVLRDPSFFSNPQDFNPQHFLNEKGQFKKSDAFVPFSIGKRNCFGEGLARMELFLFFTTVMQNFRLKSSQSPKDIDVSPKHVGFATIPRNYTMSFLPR
Note: in other assays of this panel Not Active means under 50% inhibition at 10 µM.

Sequence of Cytochrome P450 3A4 (P08684 whole entry): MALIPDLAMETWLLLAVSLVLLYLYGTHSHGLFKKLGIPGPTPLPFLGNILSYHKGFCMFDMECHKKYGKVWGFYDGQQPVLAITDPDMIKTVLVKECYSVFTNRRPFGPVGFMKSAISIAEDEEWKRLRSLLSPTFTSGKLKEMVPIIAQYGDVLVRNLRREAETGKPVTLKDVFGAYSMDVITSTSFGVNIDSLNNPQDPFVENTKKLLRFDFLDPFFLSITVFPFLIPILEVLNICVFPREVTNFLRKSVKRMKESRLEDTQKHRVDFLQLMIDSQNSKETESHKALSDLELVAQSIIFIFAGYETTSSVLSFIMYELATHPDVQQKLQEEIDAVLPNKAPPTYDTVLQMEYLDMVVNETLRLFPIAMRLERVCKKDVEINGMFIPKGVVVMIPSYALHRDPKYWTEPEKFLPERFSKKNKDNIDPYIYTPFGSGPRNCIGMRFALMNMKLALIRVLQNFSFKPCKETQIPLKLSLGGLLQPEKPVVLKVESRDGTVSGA
Sequence of Voltage-gated inwardly rectifying potassium channel KCNH2 (Q12809 whole entry): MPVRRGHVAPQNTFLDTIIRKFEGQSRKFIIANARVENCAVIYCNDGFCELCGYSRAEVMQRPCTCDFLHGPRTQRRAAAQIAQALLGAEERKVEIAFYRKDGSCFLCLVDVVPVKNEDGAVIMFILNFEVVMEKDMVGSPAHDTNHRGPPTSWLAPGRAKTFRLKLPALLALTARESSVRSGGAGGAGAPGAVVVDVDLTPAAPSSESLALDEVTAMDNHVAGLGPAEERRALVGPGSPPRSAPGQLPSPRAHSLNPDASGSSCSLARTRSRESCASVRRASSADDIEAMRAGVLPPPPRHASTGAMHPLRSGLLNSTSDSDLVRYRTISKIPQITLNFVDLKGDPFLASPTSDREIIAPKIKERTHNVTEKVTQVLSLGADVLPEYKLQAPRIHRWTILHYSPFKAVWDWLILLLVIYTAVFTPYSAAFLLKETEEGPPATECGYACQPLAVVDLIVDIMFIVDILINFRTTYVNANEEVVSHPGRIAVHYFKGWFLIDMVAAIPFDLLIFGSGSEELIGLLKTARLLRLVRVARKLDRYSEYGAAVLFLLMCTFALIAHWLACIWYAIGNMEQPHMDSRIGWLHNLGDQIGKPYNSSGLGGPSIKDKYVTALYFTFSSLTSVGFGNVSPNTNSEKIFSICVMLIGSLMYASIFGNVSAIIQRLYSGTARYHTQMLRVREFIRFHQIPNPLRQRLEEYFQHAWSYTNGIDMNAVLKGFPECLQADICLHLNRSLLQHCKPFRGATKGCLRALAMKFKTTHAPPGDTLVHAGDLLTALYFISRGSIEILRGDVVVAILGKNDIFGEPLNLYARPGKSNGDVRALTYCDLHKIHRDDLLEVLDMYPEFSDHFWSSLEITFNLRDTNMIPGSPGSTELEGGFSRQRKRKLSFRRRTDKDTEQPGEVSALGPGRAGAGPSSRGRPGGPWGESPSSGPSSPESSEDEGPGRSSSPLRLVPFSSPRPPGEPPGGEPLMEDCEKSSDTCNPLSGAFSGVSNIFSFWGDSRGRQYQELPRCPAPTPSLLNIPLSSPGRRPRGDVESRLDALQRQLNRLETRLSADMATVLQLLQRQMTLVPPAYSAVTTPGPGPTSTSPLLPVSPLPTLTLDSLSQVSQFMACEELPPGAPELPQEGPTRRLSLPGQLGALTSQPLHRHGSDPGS
Sequence of Cytochrome P450 2C19 (P33261 whole entry): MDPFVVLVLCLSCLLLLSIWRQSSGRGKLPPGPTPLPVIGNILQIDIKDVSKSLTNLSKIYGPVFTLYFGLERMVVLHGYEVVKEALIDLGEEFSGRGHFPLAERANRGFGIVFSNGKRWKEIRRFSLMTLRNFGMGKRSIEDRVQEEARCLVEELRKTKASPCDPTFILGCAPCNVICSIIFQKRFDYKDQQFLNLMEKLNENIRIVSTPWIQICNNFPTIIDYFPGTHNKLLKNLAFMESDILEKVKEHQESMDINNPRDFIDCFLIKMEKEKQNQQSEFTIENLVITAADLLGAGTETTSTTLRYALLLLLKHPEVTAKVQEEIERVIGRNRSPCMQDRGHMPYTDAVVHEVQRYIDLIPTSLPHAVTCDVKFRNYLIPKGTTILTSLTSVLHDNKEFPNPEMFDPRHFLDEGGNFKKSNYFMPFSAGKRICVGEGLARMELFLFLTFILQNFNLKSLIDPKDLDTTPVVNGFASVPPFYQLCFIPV
Sequence of Cytochrome P450 2E1 (P05181 whole entry): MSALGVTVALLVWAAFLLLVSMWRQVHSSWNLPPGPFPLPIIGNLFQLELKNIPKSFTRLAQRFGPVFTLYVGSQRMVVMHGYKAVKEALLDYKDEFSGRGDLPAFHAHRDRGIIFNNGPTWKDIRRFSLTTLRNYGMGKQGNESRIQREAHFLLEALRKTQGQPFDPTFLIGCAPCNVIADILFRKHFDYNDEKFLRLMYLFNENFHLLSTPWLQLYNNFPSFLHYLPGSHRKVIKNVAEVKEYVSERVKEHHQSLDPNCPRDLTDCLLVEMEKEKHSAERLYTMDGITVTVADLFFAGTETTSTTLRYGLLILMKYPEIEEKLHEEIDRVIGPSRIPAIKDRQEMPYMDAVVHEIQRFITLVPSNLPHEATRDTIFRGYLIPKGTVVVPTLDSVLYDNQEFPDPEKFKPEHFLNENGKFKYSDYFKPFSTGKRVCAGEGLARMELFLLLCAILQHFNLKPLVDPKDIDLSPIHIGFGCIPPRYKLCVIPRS
Sequence of Cytochrome P450 2D6 (P10635 whole entry): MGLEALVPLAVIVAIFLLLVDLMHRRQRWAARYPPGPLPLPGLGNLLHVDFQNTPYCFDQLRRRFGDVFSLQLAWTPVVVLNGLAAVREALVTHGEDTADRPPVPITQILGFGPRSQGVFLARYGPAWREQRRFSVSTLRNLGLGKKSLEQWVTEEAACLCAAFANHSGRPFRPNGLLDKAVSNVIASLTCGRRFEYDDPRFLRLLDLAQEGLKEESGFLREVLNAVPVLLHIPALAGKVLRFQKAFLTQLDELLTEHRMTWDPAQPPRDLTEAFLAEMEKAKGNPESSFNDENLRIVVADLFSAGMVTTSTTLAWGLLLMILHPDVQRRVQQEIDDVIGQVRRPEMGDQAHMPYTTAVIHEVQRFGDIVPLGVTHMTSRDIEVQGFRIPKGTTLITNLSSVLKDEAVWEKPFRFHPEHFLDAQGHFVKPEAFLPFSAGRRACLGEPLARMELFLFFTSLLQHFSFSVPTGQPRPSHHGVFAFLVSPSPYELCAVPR
Sequence of Cytochrome P450 2C9 (P11712 whole entry): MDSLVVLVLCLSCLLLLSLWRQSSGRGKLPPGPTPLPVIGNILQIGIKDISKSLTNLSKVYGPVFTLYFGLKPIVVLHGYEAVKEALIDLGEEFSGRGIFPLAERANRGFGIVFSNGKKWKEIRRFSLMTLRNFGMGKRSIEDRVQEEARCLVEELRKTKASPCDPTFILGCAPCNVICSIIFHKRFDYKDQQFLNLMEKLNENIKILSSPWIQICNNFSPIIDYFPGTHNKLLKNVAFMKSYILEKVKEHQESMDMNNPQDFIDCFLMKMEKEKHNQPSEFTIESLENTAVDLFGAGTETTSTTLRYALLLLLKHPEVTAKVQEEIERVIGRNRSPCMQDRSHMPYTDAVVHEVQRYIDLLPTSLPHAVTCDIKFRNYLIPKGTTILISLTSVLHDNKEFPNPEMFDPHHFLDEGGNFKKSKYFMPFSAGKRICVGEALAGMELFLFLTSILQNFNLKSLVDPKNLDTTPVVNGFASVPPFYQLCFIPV

CC=Cc1ccc(O)c(OC)c1 [ISOEUGENOL]
Not Active: IC50 (Cytochrome P450 2C9) | Ki (Cytochrome P450 2C9) | IC50 (Cytochrome P450 2C19) | Ki (Cytochrome P450 2C19) | IC50 (Cytochrome P450 3A4) | Ki (Cytochrome P450 3A4) | IC50 (Cytochrome P450 2D6) | Ki (Cytochrome P450 2D6) | IC50 (Cytochrome P450 1A2) | Ki (Cytochrome P450 1A2) | IC50 (Cytochrome P450 2E1) | Ki (Cytochrome P450 2E1) | IC50 [1] | Ki [1] | IC50 (Cytochrome P450 2A6) | Ki (Cytochrome P450 2A6)
